Measured values: patent US20110136801A1, “Novel Compounds” (Dainippon Sumitomo Pharma Co. Ltd., priority 2009, published 2011)
pEC50: −log10 of the molar value.

molecular target: T1, human TLR7 (Homo sapiens, UniProt Q9NYK1); assay: Human TLR7 Assay (SEAP reporter in HEK293 cells); type: cell-based; details: HEK293 cell line expressing human TLR7 and pNiFty2-SEAP reporter, overnight incubation at 37° C., 0.1% DMSO; read-out: hTLR7 EC50;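 note: Read-out is secreted alkaline phosphatase made under an NFkB/ELAM-1 composite promoter, reporting TLR7-triggered NFkB activation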
T1 construct: expressed in transfected cells; host or cells: HEK293 cell line stably expressing the pNiFty2-SEAP reporter plasmid; TLR7 in pUNO vector, blasticidin selection
T1 sequence (Q9NYK1 27-1049): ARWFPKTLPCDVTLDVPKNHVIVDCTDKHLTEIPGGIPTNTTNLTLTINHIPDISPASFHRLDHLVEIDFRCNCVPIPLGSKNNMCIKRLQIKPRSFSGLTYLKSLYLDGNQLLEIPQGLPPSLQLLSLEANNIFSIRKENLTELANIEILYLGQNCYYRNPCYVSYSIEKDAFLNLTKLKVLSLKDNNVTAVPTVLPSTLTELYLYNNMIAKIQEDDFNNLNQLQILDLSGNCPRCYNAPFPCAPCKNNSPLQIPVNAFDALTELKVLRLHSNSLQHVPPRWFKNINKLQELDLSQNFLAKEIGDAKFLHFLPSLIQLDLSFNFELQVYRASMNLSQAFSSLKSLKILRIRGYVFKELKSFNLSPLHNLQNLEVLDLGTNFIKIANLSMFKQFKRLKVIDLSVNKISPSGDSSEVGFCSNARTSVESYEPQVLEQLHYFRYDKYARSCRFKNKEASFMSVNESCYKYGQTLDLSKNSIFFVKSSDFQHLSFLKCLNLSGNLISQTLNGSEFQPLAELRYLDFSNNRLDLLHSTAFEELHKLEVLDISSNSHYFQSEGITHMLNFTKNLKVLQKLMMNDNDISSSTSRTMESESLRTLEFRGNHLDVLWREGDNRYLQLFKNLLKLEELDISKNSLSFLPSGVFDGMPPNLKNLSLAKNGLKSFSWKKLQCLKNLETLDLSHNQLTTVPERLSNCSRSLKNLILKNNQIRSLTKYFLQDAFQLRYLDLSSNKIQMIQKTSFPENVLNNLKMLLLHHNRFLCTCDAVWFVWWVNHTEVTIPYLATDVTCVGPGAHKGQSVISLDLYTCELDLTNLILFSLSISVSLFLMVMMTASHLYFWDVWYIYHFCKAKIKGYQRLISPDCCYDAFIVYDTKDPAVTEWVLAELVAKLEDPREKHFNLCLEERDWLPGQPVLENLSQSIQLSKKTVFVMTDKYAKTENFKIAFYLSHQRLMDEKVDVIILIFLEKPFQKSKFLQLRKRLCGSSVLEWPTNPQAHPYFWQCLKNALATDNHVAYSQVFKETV

Row | SMILES | pEC50
1 | CCOC(=O)COc1ccccc1CN(CCCn1c(CCOC)nc2c(N)nc3ccccc3c21)C(=O)CN(CC)CC [Example 41, Ethyl 2-{2-[(N-{3-[4-amino-2-(2-methoxyethyl)-1H-imidazo[4,5-c]quinolin-1-yl]propyl}-2-(diethylamino)acetamido)methyl]phenoxy}acetate] | 6.86
2 | CCOC(=O)COc1ccc(CN(CCCCn2c(CCOC)nc3c(N)nc4ccccc4c32)C(=O)NCCN2CCCCC2)cc1 [Example 125, Ethyl 2-{4-[(1-{4-[4-amino-2-(2-methoxyethyl)-1H-imidazo[4,5-c]quinolin-1-yl]butyl}-3-{2-(piperidin-1-yl)ethyl}ureido)methyl]phenoxy}acetate] | 7.95
3 | CCOC(=O)COc1cccc(CN(CCn2c(CCOC)nc3c(N)nc4ccccc4c32)C(=O)CN(CC)CC)c1 [Example 101, Ethyl 2-{3-[(N-{2-[4-amino-2-(2-methoxyethyl)-1H-imidazo[4,5-c]quinolin-1-yl]ethyl}-2-{diethylamino}acetamido)methyl]phenoxy}acetate] | < 5.00
4 | CCN(CC)CC(=O)N(CCCn1c(CCOC)nc2c(N)nc3ccccc3c21)Cc1cccc(OC2(C(=O)OC)CC2)c1 [Example 79, Methyl 1-{3-[(N-{3-[4-amino-2-(2-methoxyethyl)-1H-imidazo[4,5-c]quinolin-1-yl]propyl}-2-{diethylamino}acetamido)methyl]phenoxy}cyclopropanecarboxylate] | 7.29
5 | CCN(CC)CC(=O)N(CCn1c(CCOC)nc2c(N)nc3ccccc3c21)Cc1cccc(OC(C)(C)C(=O)OC)c1 [Example 107, Methyl 2-{3-[(N-{2-[4-amino-2-(2-methoxyethyl)-1H-imidazo[4,5-c]quinolin-1-yl]ethyl}-2-{diethylamino}acetamido)methyl]phenoxy}-2-methylpropanoate] | < 5.00
6 | CCN(CC)CC(=O)N(CCCn1c(CCOC)nc2c(N)nc3ccccc3c21)Cc1cccc(OCC(=O)OCCO)c1 [Example 30, 2-Hydroxyethyl 2-{3-[(N-{3-[4-amino-2-(2-methoxyethyl)-1H-imidazo[4,5-c]quinolin-1-yl]propyl}-2-(diethylamino)acetamido)methyl]phenoxy}acetate] | 5.84
7 | CCCCc1nc2c(N)nc3ccccc3c2n1CCCN(Cc1cccc(OCC(=O)OC)c1)C(=O)CN1CCN(CCOC)CC1 [Example 12, Methyl {3-[([3-(4-amino-2-butyl-1H-imidazo[4,5-c]quinolin-1-yl)propyl]{[4-(2-methoxyethyl)piperazin-1-yl]acetyl}amino)methyl]phenoxy}acetate] | 6.36
8 | CCOC(=O)C(C)(C)Oc1cccc(CN(CCn2c(CCOC)nc3c(N)nc4ccccc4c32)C(=O)CN(CC)CC)c1 [Example 106, Ethyl 2-{3-[(N-{2-[4-amino-2-(2-methoxyethyl)-1H-imidazo[4,5-c]quinolin-1-yl]ethyl}-2-{diethylamino}acetamido)methyl]phenoxy}-2-methylpropanoate] | < 5.00
9 | CCCCc1nc2c(N)nc3ccccc3c2n1CCCN(Cc1cccc(OCC(=O)OC(C)C)c1)C(=O)CN(C)C [Example 159, Isopropyl 2-[3-({N-[3-(4-amino-2-butyl-1H-imidazo[4,5-c]quinolin-1-yl)propyl]-2-(dimethylamino)acetamido}methyl)phenoxy]acetate] | 6.86
10 | COCCc1nc2c(N)nc3ccccc3c2n1CCCN(Cc1cccc(OCC(=O)OC)c1)C(=O)CN1CCCCC1 [Example 19, Methyl (3-{[[3-(4-amino-2-(2-methoxyethyl)-1H-imidazo[4,5-c]quinolin-1-yl)propyl](piperidin-1-ylacetyl)amino]methyl}phenoxy)acetate] | 6.75
11 | CCN(C)CC(=O)N(CCCn1c(CCOC)nc2c(N)nc3ccccc3c21)Cc1cccc(OCC(=O)OC(C)C)c1 [Example 114, Isopropyl 2-{3-[(N-{3-[4-amino-2-(2-methoxyethyl)-1H-imidazo[4,5-c]quinolin-1-yl]propyl}-2-{ethyl(methyl)amino}acetamido]methyl)phenoxy}acetate] | 7.17
12 | COCCc1nc2c(N)nc3ccccc3c2n1CCCCN(CCN(C)C)Cc1cccc(OC(C)(C)C(=O)OC)c1 [Example 135, Methyl 2-{3-[({4-[4-amino-2-(2-methoxyethyl)-1H-imidazo[4,5-c]quinolin-1-yl]butyl}{2-(dimethylamino)ethyl}amino)methyl]phenoxy}-2-methylpropanoate] | 7.78
13 | CCOC(=O)COc1cccc(CN(CCCn2c(CCOC)nc3c(N)nc4ccccc4c32)C(=O)CN(C)C)c1F [Example 95, Ethyl 2-{3-[(N-{3-[4-amino-2-(2-methoxyethyl)-1H-imidazo[4,5-c]quinolin-1-yl]propyl}-2-{dimethylamino}acetamido)methyl]-2-fluorophenoxy}acetate] | 6.35
14 | CCN(CC)CC(=O)N(CCCn1c(CCOC)nc2c(N)nc3ccccc3c21)Cc1ccc(OC)c(OCC(=O)OC(C)C)c1 [Example 72, Isopropyl 2-{5-[(N-{3-[4-amino-2-(2-methoxyethyl)-1H-imidazo[4,5-c]quinolin-1-yl]propyl}-2-{diethylamino}acetamido)methyl]-2-methoylphenoxy}acetate] | 7.25
15 | CCCCc1nc2c(N)nc3ccccc3c2n1CCCN(Cc1cccc(OC(C)(C)C(=O)OC)c1)C(=O)CN1CCCC1 [Example 169, Methyl 2-[3-({N-[3-(4-amino-2-butyl-1H-imidazo[4,5-c]quinolin-1-yl)propyl]-2-(pyrrolidin-1-yl)acetamido}methyl)phenoxy]-2-methylpropanoate] | 6.81
16 | CCCCc1nc2c(N)nc3ccccc3c2n1CCCN(Cc1cccc(OC(C)(C)C(=O)OCC)c1)C(=O)CN(C)C [Example 155, Ethyl 2-[3-({N-[3-(4-amino-2-butyl-1H-imidazo[4,5-c]quinolin-1-yl)propyl]-2-(dimethylamino)acetamido}methyl)phenoxy]-2-methylpropanoate] | 6.63
17 | CCN(CC)CC(=O)N(CCCn1c(CCOC)nc2c(N)nc3ccccc3c21)Cc1cc(F)cc(OCC(=O)OC(C)C)c1 [Example 123, Isopropyl 2-{3-[(N-{3-[4-amino-2-(2-methoxyethyl)-1H-imidazo[4,5-c]quinolin-1-yl]propyl}-2-{diethylamino}acetamido)methyl]-5-fluorophenoxy}acetate] | 7.30
18 | CCOC(=O)COc1cccc(CN(CCCn2c(CCOC)nc3c(N)nc4ccccc4c32)C(=O)CN(C)C)c1 [Example 33, Ethyl 2-{3-[(N-{3-[4-amino-2-(2-methoxyethyl)-1H-imidazo[4,5-c]quinolin-1-yl]propyl}-2-(dimethylamino)acetamido)methyl]phenoxy}acetate] | 6.75
19 | CCOC(=O)COc1cccc(CN(CCCCn2c(CCOC)nc3c(N)nc4ccccc4c32)C(=O)NCCN(C)C)c1 [Example 127, Ethyl 2-{3-[(1-{4-[4-amino-2-(2-methoxyethyl)-1H-imidazo[4,5-c]quinolin-1-yl]butyl}-3-{2-(dimethylamino)ethyl}ureido)methyl]phenoxy}acetate] | 7.37
20 | CCOC(=O)C(C)(C)Oc1cccc(CN(CCCn2c(CCOC)nc3c(N)nc4ccccc4c32)C(=O)CN(C)CC)c1 [Example 150, Ethyl 2-{3-[(N-{3-[4-amino-2-(2-methoxyethyl)-1H-imidazo[4,5-c]quinolin-1-yl]propyl}-2-{ethyl(methyl)amino}acetamido)methyl]phenoxy}-2-methylpropanoate] | 7.07
21 | CCOC(=O)COc1ccc(CN(CCN2CCCCC2)C(=O)NCCCCn2c(CCOC)nc3c(N)nc4ccccc4c32)cc1 [Example 131, Ethyl 2-{4-[(3-{4-[4-amino-2-(2-methoxyethyl)-1H-imidazo[4,5-c]quinolin-1-yl]butyl}-1-{2-(piperidin-1-yl)ethyl}ureido)methyl]phenoxy}acetate] | 7.43
22 | CCOC(=O)C(C)(C)Oc1cccc(CN(CCCCn2c(CCOC)nc3c(N)nc4ccccc4c32)CCN(C)C)c1 [Example 134, Ethyl 2-{3-[({4-[4-amino-2-(2-methoxyethyl)-1H-imidazo[4,5-c]quinolin-1-yl]butyl}{2-(dimethylamino)ethyl}amino)methyl]phenoxy}-2-methylpropanoate] | 7.68
23 | CCOC(=O)COc1cc(CN(CCCn2c(CCOC)nc3c(N)nc4ccccc4c32)C(=O)CN(CC)CC)ccc1OC [Example 62, Ethyl 2-{5-[(N-{3-[4-amino-2-(2-methoxyethyl)-1H-imidazo[4,5-c]quinolin-1-yl]propyl}-2-{diethylamino}acetamido)methyl]-2-methoxyphenoxy}acetate] | 7.07
